Among the test systems are OVCAR-4; SF-295; HCT-15; HCC 2998; KM12; MOLT-4; HT-29; SNB-19; NCI-H23; SR; Malme-3M; COLO 205; OVCAR-8; OVCAR-3; EKVX; SK-MEL-28; UACC-257; NCI-H226; HOP-92.
Common to all, as to test: inhibition of tumour cell growth, NCI panel, 48 h

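Cells were grown in 96-well plates and exposed to each compound for 48 hours at five concentrations; endpoints were interpolated linearly between bracketing concentrations, or set to the highest concentration if not reached. At the GI50, growth is halved.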 Active and inactive are the calls of the source. Cut-off read from the data, not from the text of the source: active = GI50 up to about 1.1 µM and inactive = higher.

With `CCOC(=O)[C@]12C(=C(c3ccccc3)O[C@H]3C=CCC[C@H]31)C(=O)C(=O)N2c1ccccc1`, the GI50 is > 100 µM (inactive) in the experiment on OVCAR-4; 98.4 µM (inactive) with SF-295; above 100 µM in the experiment with HCT-15; > 100 µM (inactive) in the experiment with HCC 2998; 37.7 µM (inactive) with KM12; 21.4 µM (inactive) with MOLT-4. The GI50 is 60 µM (inactive) in the experiment with HT-29; > 100 µM (inactive) in the experiment with SNB-19; > 100 µM (inactive) in the experiment with NCI-H23; 17.7 µM (inactive) with SR; 65.5 µM (inactive) in the experiment on Malme-3M; > 100 µM (inactive) in the experiment on COLO 205. The GI50 is 65.2 µM (inactive) in the experiment with OVCAR-8 and > 100 µM (inactive) in the experiment with OVCAR-3.
Take `NC1CC2NC3CCCCC3NC2CC1N` (stereo unspecified): the GI50 in the experiment with EKVX was 25.4 µM (inactive); in the experiment on SF-295, 31.8 µM (inactive); with HCT-15, 21.7 µM; in the experiment with HCC 2998, 62.5 µM (inactive); with SK-MEL-28, 74.5 µM (inactive); in the experiment on KM12, 33.7 µM (inactive). Moreover, the GI50 with MOLT-4 is 24.9 µM (inactive); in the experiment on HT-29 it was 27.4 µM (inactive); in the experiment with SNB-19, 36.2 µM (inactive); in the experiment on UACC-257 it was 37.9 µM (inactive); with NCI-H23, 32.4 µM (inactive); in the experiment with SR it was 29.2 µM (inactive). The GI50 with NCI-H226 was 48.9 µM (inactive); with Malme-3M, 46.6 µM (inactive); with COLO 205 it was 42.5 µM (inactive); with OVCAR-8, 27.4 µM (inactive); in the experiment with OVCAR-3, 40.8 µM (inactive).
Turning to `C=CCSC(C)=O`, the GI50 is > 100 µM (inactive) in the experiment on OVCAR-4; > 100 µM (inactive) with EKVX; > 100 µM (inactive) in the experiment on SF-295; above 100 µM in the experiment on HCT-15; > 100 µM (inactive) in the experiment on HCC 2998; > 100 µM (inactive) with SK-MEL-28. The GI50 in the experiment with KM12 is > 100 µM (inactive); in the experiment on MOLT-4, > 10 µM (inactive); in the experiment on HT-29, > 100 µM (inactive); in the experiment with SNB-19, > 100 µM (inactive); with NCI-H23, > 100 µM (inactive); with SR, > 100 µM (inactive). Moreover, the GI50 with NCI-H226, with Malme-3M, with COLO 205, with OVCAR-8 and with OVCAR-3 was > 100 µM (inactive) each time.
As to `O=[N+]([O-])c1ccc(-c2noc(-c3ccc(Cl)cc3)c2C2=NCCN2)cc1`, the GI50 with OVCAR-4 was > 100 µM (inactive); with EKVX, > 100 µM (inactive); with SF-295 it was > 100 µM (inactive); with HCT-15 it was above 100 µM; in the experiment with HCC 2998 it was > 100 µM (inactive); in the experiment on SK-MEL-28 it was > 100 µM (inactive). The GI50 in the experiment on KM12, in the experiment on MOLT-4, in the experiment on HT-29, in the experiment on SNB-19, in the experiment with UACC-257 and in the experiment with SR was > 100 µM (inactive) each time. The GI50 with NCI-H226, in the experiment with Malme-3M, in the experiment with COLO 205, in the experiment on OVCAR-8 and in the experiment with OVCAR-3 was > 100 µM (inactive) each time.
Regarding `Cc1c(C#N)c(N)[nH]c(=S)c1C#N`, the GI50 in the experiment with EKVX was > 100 µM (inactive); with SF-295, > 100 µM (inactive); in the experiment with HCT-15, above 100 µM; with HCC 2998, > 100 µM (inactive); with SK-MEL-28, > 100 µM (inactive); in the experiment on KM12, > 100 µM (inactive). Besides, the GI50 in the experiment with MOLT-4, in the experiment with HT-29, in the experiment with SNB-19, with UACC-257, with NCI-H23 and in the experiment with SR was > 100 µM (inactive) each time. For the same molecule, the GI50 in the experiment with NCI-H226, in the experiment with Malme-3M, in the experiment with OVCAR-8 and in the experiment with OVCAR-3 was > 100 µM (inactive) in each case.
As for `O=C(O)c1ccc(/C=N/N=C2c3ccccc3-c3ccccc32)cc1`, the GI50 with OVCAR-4 was 35.8 µM (inactive); in the experiment with EKVX, > 100 µM (inactive); in the experiment with SF-295, 12.7 µM (inactive); in the experiment on HCT-15, 57.1 µM; with SK-MEL-28, 62.4 µM (inactive); with KM12 it was 35.2 µM (inactive). Besides, the GI50 was 40.6 µM (inactive) with HOP-92; 38.6 µM (inactive) with MOLT-4; 54.3 µM (inactive) with HT-29; 48 µM (inactive) in the experiment with SNB-19; 67.5 µM (inactive) with UACC-257; 53.8 µM (inactive) with NCI-H23. Also, the GI50 was 30.4 µM (inactive) with SR; 22.4 µM (inactive) with NCI-H226; 29 µM (inactive) in the experiment on Malme-3M; 57.8 µM (inactive) with COLO 205; 49.8 µM (inactive) in the experiment with OVCAR-8; 19.6 µM (inactive) in the experiment with OVCAR-3.
As for `O=C1C2=C(SCCS2)C(=O)c2c(Sc3ccc(Cl)cc3)c(Sc3ccc(Cl)cc3)c(Sc3ccc(Cl)cc3)c(Sc3ccc(Cl)cc3)c21`, the GI50 in the experiment with OVCAR-4 was > 100 µM (inactive); in the experiment with EKVX it was > 100 µM (inactive); in the experiment on SF-295, 32.5 µM (inactive); in the experiment on HCT-15, above 100 µM; in the experiment on HCC 2998, > 100 µM (inactive); with KM12, > 100 µM (inactive). The GI50 was 17.1 µM (inactive) in the experiment with MOLT-4; 25.2 µM (inactive) in the experiment on SNB-19; > 100 µM (inactive) in the experiment on UACC-257; 74.3 µM (inactive) with NCI-H23; 21.8 µM (inactive) in the experiment with SR; 40.8 µM (inactive) in the experiment on NCI-H226. Further, the GI50 with Malme-3M was 20.2 µM (inactive); with COLO 205, > 100 µM (inactive); in the experiment with OVCAR-8 it was > 100 µM (inactive); with OVCAR-3 it was > 100 µM (inactive).
Take `[O-][n+]1onc2c1-c1nonc1CC2`: the GI50 in the experiment on OVCAR-4 is 30.3 µM (inactive); in the experiment on EKVX, 25.9 µM (inactive); with SF-295, > 100 µM (inactive); in the experiment on HCT-15 it was 62.8 µM; in the experiment with HCC 2998, 77.1 µM (inactive); in the experiment on SK-MEL-28, 55.2 µM (inactive). For the same molecule, the GI50 in the experiment on KM12 is 45.3 µM (inactive); in the experiment on MOLT-4, 19.2 µM (inactive); in the experiment on HT-29, 35.5 µM (inactive); in the experiment on SNB-19, > 100 µM (inactive); with UACC-257, 18.5 µM (inactive); in the experiment on NCI-H23 it was 23.8 µM (inactive). Further, the GI50 in the experiment on SR was 1.46 µM (inactive); with NCI-H226, 36.8 µM (inactive); in the experiment on Malme-3M it was 11.9 µM (inactive); in the experiment with COLO 205, 48.5 µM (inactive); in the experiment on OVCAR-8 it was 46 µM (inactive); in the experiment with OVCAR-3 it was 10.6 µM (inactive).
For `CO[C@@H]1C=C[C@@]23c4cc5c(cc4C(O)N(CC2O)C3C1)OCO5` (stereo partly specified), the GI50 in the experiment on OVCAR-4 is 2.8 µM (inactive); with EKVX, 3.86 µM (inactive); in the experiment with SF-295 it was 5.41 µM (inactive); with HCT-15, 3.8 µM; with SK-MEL-28, 5.04 µM (inactive); in the experiment with KM12 it was 2.62 µM (inactive). For the same molecule, the GI50 was 3.09 µM (inactive) in the experiment on HOP-92; 2.82 µM (inactive) with MOLT-4; 3 µM (inactive) with HT-29; 3.3 µM (inactive) with SNB-19; 1.86 µM (inactive) in the experiment on UACC-257; 4.29 µM (inactive) in the experiment on NCI-H23. The GI50 was 4 µM (inactive) in the experiment with SR; 36.5 µM (inactive) with NCI-H226; 6.97 µM (inactive) with Malme-3M; 2.94 µM (inactive) in the experiment on COLO 205; 3.63 µM (inactive) in the experiment with OVCAR-8; 4.86 µM (inactive) in the experiment on OVCAR-3.

These data come from ChEMBL document CHEMBL1201862, “PubChem BioAssay data set” (2004).
